Assay results: ChEMBL document CHEMBL5291721, “A preclinical secondary pharmacology resource illuminates target-adverse drug reaction associations of marketed drugs” (Nat Commun, 2023)

Assays:
[1] = target: T1, 5-hydroxytryptamine receptor 2C (Homo sapiens, UniProt P28335)
T1 sequence (P28335 whole entry): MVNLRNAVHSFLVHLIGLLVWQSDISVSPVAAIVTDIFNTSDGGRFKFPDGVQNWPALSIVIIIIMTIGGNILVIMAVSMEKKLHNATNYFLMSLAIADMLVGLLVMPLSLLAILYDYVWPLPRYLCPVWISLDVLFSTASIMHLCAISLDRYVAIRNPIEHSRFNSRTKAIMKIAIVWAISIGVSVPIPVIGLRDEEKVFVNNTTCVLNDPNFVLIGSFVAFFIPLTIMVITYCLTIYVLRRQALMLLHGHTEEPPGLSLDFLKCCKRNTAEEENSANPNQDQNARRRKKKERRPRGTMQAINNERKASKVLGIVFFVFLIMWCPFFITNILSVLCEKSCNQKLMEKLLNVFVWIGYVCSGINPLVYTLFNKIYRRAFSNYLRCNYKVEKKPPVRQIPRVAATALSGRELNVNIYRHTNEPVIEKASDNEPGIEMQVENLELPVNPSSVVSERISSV

[2] = target: T2, 5-hydroxytryptamine receptor 3A (Homo sapiens, UniProt P46098); type: functional
T2 sequence (P46098 whole entry): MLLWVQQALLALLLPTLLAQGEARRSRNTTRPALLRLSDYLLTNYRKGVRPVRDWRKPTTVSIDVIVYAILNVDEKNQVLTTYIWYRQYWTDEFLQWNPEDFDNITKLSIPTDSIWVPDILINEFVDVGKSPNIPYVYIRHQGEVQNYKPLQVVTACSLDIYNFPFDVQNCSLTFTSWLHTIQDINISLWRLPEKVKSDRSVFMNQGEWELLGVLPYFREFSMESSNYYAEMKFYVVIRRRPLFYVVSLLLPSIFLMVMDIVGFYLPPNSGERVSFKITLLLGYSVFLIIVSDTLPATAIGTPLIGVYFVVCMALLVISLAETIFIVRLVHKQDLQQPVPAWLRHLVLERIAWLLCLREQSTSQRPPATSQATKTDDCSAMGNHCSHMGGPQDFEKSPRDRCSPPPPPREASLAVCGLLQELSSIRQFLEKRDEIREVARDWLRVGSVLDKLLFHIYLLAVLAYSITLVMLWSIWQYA

[3] = target: T3, Alpha-2C adrenergic receptor (Homo sapiens, UniProt P18825); type: functional
T3 sequence (P18825 whole entry): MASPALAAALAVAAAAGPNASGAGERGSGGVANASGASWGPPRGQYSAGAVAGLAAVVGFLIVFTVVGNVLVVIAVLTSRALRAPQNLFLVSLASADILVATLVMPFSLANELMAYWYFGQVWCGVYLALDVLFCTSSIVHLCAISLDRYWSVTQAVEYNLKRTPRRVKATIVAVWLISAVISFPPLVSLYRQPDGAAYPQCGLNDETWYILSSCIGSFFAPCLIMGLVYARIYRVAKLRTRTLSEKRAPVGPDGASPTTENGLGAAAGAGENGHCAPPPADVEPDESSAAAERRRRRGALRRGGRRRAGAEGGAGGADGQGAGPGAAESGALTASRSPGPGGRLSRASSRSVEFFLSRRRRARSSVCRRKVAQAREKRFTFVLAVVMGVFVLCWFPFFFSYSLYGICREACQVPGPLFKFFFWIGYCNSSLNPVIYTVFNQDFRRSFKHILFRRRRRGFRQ

[4] = target: T4, 5-hydroxytryptamine receptor 1A (Homo sapiens, UniProt P08908); type: functional, cell-based
T4 sequence (P08908 whole entry): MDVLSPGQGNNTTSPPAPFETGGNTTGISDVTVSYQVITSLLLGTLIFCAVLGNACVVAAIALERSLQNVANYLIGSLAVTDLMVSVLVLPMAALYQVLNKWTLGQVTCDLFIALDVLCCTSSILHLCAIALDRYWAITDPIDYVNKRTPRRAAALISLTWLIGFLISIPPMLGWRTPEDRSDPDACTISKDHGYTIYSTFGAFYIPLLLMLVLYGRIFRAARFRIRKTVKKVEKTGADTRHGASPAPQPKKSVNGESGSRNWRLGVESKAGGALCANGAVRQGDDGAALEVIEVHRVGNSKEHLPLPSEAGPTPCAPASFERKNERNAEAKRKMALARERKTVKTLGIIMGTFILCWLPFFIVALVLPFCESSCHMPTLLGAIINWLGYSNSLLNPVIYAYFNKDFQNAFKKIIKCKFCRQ

[5] = target: T5, Muscarinic acetylcholine receptor M2 (Homo sapiens, UniProt P08172); type: functional, cell-based
T5 sequence (P08172 whole entry): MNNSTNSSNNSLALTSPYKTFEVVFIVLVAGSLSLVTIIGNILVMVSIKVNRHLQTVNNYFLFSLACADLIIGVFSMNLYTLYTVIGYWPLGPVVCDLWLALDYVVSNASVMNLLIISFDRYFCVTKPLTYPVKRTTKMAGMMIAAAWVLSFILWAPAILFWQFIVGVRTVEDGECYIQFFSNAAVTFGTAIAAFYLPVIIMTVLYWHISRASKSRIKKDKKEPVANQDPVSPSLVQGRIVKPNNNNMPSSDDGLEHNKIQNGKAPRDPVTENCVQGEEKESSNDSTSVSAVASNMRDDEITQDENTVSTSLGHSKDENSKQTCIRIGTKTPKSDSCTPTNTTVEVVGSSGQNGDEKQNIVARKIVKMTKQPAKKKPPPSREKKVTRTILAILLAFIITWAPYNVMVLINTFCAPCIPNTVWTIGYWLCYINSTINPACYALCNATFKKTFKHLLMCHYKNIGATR

[6] = target: Beta-1 adrenergic receptor (Homo sapiens, UniProt P08588); type: functional
Chain of Beta-1 adrenergic receptor (P08588 whole entry): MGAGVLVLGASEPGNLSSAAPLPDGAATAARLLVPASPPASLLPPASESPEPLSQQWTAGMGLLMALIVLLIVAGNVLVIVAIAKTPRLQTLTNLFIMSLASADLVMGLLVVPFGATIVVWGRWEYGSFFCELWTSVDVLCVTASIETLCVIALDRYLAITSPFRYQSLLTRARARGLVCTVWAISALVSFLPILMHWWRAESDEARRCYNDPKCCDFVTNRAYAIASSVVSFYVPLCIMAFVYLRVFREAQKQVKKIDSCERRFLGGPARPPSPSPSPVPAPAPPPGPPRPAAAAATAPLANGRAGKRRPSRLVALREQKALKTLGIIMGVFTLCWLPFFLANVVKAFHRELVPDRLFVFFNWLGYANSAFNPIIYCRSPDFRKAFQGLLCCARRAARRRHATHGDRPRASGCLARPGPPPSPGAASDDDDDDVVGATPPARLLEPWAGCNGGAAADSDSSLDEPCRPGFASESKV

[7] = target: Voltage-gated inwardly rectifying potassium channel KCNH2 (Homo sapiens, UniProt Q12809); type: functional; conditions: read-out: AC50
Chain of Voltage-gated inwardly rectifying potassium channel KCNH2 (Q12809 whole entry): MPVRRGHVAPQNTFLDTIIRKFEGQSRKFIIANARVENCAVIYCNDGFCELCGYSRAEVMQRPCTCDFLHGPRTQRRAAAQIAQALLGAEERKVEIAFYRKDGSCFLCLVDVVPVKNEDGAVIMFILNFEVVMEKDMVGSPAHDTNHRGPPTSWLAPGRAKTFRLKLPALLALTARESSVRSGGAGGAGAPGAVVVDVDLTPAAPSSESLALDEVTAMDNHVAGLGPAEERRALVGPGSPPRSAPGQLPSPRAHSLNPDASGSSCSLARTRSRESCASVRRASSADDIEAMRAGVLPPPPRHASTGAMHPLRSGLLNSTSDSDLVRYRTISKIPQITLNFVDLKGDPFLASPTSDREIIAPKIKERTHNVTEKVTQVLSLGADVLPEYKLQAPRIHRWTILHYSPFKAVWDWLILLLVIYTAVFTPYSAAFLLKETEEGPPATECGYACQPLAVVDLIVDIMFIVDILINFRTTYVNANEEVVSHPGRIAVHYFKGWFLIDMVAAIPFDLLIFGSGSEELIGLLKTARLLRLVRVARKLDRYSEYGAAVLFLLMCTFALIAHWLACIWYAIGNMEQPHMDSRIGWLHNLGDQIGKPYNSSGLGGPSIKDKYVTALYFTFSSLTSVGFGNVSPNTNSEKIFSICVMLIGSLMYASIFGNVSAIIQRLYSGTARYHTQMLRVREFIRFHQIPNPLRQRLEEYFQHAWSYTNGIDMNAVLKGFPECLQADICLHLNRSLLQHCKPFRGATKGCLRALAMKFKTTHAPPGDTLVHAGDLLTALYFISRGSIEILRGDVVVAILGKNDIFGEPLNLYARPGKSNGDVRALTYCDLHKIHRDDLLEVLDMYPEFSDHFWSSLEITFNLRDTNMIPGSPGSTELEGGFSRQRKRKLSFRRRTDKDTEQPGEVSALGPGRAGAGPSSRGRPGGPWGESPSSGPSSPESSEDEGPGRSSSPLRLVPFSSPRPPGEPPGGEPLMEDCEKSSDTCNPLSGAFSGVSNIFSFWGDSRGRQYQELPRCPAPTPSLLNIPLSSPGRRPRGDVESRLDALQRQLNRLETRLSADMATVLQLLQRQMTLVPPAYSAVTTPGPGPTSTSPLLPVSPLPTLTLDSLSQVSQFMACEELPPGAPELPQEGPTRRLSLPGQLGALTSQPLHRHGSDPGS
Also: assay procedure not described here.

SMILES | AC50 [1] [µM] | AC50 [2] [µM] | AC50 [3] [µM] | AC50 [4] [µM] | AC50 [5] [µM] | AC50 [6] [µM] | AC50 [7] [µM]
CCCCN1C[C@H](O)[C@@H](O)[C@H](O)[C@H]1CO | > 30 | > 30 | > 30 | > 30 | > 30 | > 30 | > 30
CC(=O)NCCCS(=O)(=O)O [ACAMPROSATE] | > 30 | > 30 | > 30 | > 30 | > 30 | > 30 | > 30
CCCSc1ccc2nc(NC(=O)OC)[nH]c2c1 [ALBENDAZOLE] | > 30 | > 30 | > 10 | > 10 | > 10 | > 10 | 10.4
COc1cc2nc(N(C)CCCNC(=O)C3CCCO3)nc(N)c2cc1OC (configuration not stated) [ALFUZOSIN] | > 30 | > 30 | 0.81 | > 30 | > 30 | > 30 | –
C=CCc1ccccc1OCC(O)CNC(C)C (configuration not stated) [ALPRENOLOL] | > 30 | > 30 | 14.4 | > 30 | > 30 | – | 9.1
COC(c1ccccc1)(c1ccccc1)[C@H](Oc1nc(C)cc(C)n1)C(=O)O [AMBRISENTAN] | – | – | – | – | – | – | > 30
CC[C@H]1OC(=O)[C@H](C)[C@@H](O[C@H]2C[C@@](C)(OC)[C@@H](O)[C@H](C)O2)[C@H](C)[C@@H](O[C@@H]2O[C@H](C)C[C@H](N(C)C)[C@H]2O)[C@](C)(O)C[C@@H](C)CN(C)[C@H](C)[C@@H](O)[C@]1(C)O [AZITHROMYCIN] | > 30 | > 10 | > 10 | > 10 | > 10 | > 10 | > 30
CC1=C(C(=O)O)N2C(=O)[C@@H](NC(=O)[C@H](N)c3ccccc3)[C@H]2SC1 [CEPHALEXIN ANHYDROUS] | > 30 | > 30 | > 10 | > 30 | – | > 10 | –
CN1C(=O)CCS(=O)(=O)C1c1ccc(Cl)cc1 (configuration not stated) [CHLORMEZANONE] | > 30 | > 30 | > 30 | > 10 | > 10 | > 10 | > 30
Oc1c(Cl)cc(Cl)c2cccnc12 [CHLOROXINE] | – | – | – | – | – | – | > 30
CN(C)[C@@H](c1cccc(O)c1)[C@H]1CCCC[C@H]1O [CIRAMADOL] | – | – | – | – | – | – | > 30
CN(C)/N=N/c1[nH]cnc1C(N)=O [DACARBAZINE] | > 30 | > 30 | > 10 | > 10 | > 10 | > 10 | > 30
CN(C)CC(c1ccc(O)cc1)C1(O)CCCCC1 (configuration not stated) [DESVENLAFAXINE] | – | – | – | – | – | – | > 30
CN(C)CCN1C(=O)c2ccccc2N(C)c2ccccc21 [DIBENZEPIN] | – | – | – | – | – | – | > 30
N[C@H](C(=O)O)[C@H](O)c1ccc(O)c(O)c1 [DROXIDOPA] | – | – | – | – | – | – | > 30
C[C@]12CC[C@@H]3c4ccc(O)cc4CC[C@H]3[C@@H]1C[C@@H](O)[C@@H]2O [ESTRIOL] | – | – | – | – | – | – | > 30
O=C(O)c1cc(O)ccc1O [GENTISIC ACID] | – | – | – | – | – | – | > 30
CCC1=C(C)CN(C(=O)NCCc2ccc(S(=O)(=O)NC(=O)N[C@H]3CC[C@H](C)CC3)cc2)C1=O [GLIMEPIRIDE] | – | – | – | – | – | – | > 30

SMILES | AC50 [1] [µM] | AC50 [2] [µM] | AC50 [3] [µM] | AC50 [4] [µM] | AC50 [5] [µM] | AC50 [6] [µM] | AC50 [7] [µM]
O=P1(NCCCl)OCCCN1CCCl (configuration not stated) [IFOSFAMIDE] | > 30 | > 30 | > 30 | > 30 | > 30 | > 30 | > 30
CC(C)Nc1ncccn1 [ISAXONINE] | – | – | – | – | – | – | > 30
CCC(C)n1ncn(-c2ccc(N3CCN(c4ccc(OCC5COC(Cn6cncn6)(c6ccc(Cl)cc6Cl)O5)cc4)CC3)cc2)c1=O (configuration not stated) [ITRACONAZOLE] | > 30 | > 30 | > 30 | > 30 | > 30 | > 30 | > 30
CN1C(C(=O)Nc2ccccn2)=C(O)c2sc(Cl)cc2S1(=O)=O [LORNOXICAM] | > 30 | > 30 | > 10 | > 10 | > 10 | > 30 | > 30
Cc1cccc(Nc2ccccc2C(=O)O)c1C [MEFENAMIC ACID] | > 30 | > 30 | > 10 | > 10 | > 10 | > 10 | > 30
OCCN1C[C@H](O)[C@@H](O)[C@H](O)[C@H]1CO [MIGLITOL] | – | – | – | – | – | – | > 30
Clc1ccc(C(c2ccccc2Cl)C(Cl)Cl)cc1 (configuration not stated) [MITOTANE] | > 30 | > 30 | > 10 | > 10 | > 10 | > 10 | > 30
CC(=O)N[C@@H]1[C@@H](O)[C@H](O)[C@@H](CO)O[C@H]1O [N-ACETYLGLUCOSAMINE] | – | – | – | – | – | – | > 30
O=C(CCNNC(=O)c1ccncc1)NCc1ccccc1 [NIALAMIDE] | – | – | – | – | – | – | > 30
CC1(C)NC(=O)N(c2ccc([N+](=O)[O-])c(C(F)(F)F)c2)C1=O [NILUTAMIDE] | > 30 | > 30 | > 30 | > 30 | > 30 | > 30 | > 30
CC[N+]1(C)[C@@H]2CC(OC(=O)[C@H](CO)c3ccccc3)C[C@H]1[C@@H]1O[C@@H]12 (some centres not stated) [OXITROPIUM] | – | – | – | – | – | – | > 30
CC(C)(C)NC[C@H](O)COc1ccccc1C1CCCC1 [PENBUTOLOL] | – | – | – | – | – | – | 11
CC(C)(S)[C@@H](N)C(=O)O [PENICILLAMINE] | – | – | – | – | – | – | > 30
CN(C)S(=O)(=O)c1ccc2c(c1)N(CCCN1CCC(CCO)CC1)c1ccccc1S2 [PIPOTIAZINE] | – | – | – | – | – | – | 0.39
COc1cc(NC(C)CCCN)c2ncccc2c1 (configuration not stated) [PRIMAQUINE] | – | – | – | – | – | – | 20
COc1ccccc1OCC(O)CN1CCN(CC(=O)Nc2c(C)cccc2C)CC1 (configuration not stated) [RANOLAZINE] | > 30 | > 30 | 1.4 | > 30 | > 30 | 7.8 | –
CCOC(=O)[C@H](CCc1ccccc1)N[C@@H](C)C(=O)N1[C@H](C(=O)O)C[C@H]2CCCC[C@@H]21 [TRANDOLAPRIL] | – | – | – | – | – | – | > 30
CCCCCCOc1nsnc1C1=CCCN(C)C1 [XANOMELINE] | – | – | – | – | – | – | 1.3
